Measurements as given in patent US6759403B2, “Metalloporphyrins and their uses as radiosensitizers for radiation therapy” (Brookhaven Science Associates, LLC, priority 2001, dated 2004).
Where two headings read alike, the source gives them in different places.

Assays:
[1] = system: malignant brain tumors; details: clinical use of BPA; cited from earlier work
[2] = system: subcutaneous 9L gliosarcomas; assay: CuTCPH dose increase and tumor boron concentration in rats with 9L gliosarcomas; type: in vivo, Fischer 344 rats
Source text: Toxicity is the critical factor, and since no toxicity was observed, the dose can be increased to achieve tumor boron concentrations higher than those in Examples 2 and 3.

[3] = system: subcutaneous 9L gliosarcomas; assay: Boron biodistribution after intravenous infusion in rat 9L gliosarcoma model (Examples 6 and 7); type: in vivo, Fischer 344 rats
Description: This example used the experimental rat 9L gliosarcoma model and the protocol used to administer porphyrins by intravenous infusion that were reported in J. NeuroOncol, 52, 111-117, 2001. Six (6) male Fischer 344 rats bearing subcutaneous 9L gliosarcomas were infused intravenously with CuTCPBr at a total dose of 220 μg/gbw over 48 hours. Tumor and blood were sampled from each at zero, one, two and three days after the end of infusion and the boron concentrations measured. In this example, the biodistribution of CuTCPBr was compared to CuTCPH. A group of six (6) male Fischer 344 rats bearing subcutaneous 9L gliosarcomas were infused intravenously with CuTCPBr at a total dose of 220 μg/gbw over 48 hours. A second group of four (4) male Fischer 344 rats bearing subcutaneous 9L gliosarcomas were infused intravenously with CuTCPH at a total dose of 195 μg/gbw. over 48 hours. Boron concentrations in tissues from both groups of rats were taken three days after the end of infusion. The results for the CuTCPBr group of rats are listed in column 2 of Table 6 and the results for the CuTCPH group of rats are listed in column 4 of Table 6. To account for the difference in porphyrin dose (195 μg/gbw for CuTCPH versus 220 μg/gbw for CuTCPBr) and the difference in % boron in each porphyrin (31.8% for CuTCPH versus 21.7 for CuTCPBr), the boron concentrations in tissues from rats given CuTCPBr were normalized so that they would be equivalent to the boron concentrations of rats given CuTCPH. This was done by multiplying the boron concentrations in the CuTCPBr group of rats by the CuTCPBr to CuTCPH boron dose ratio of 1.3. The normalized boron concentrations for the CuTCPBr group of rats are listed in column 3 of Table 6.

[4] = system: EMT-6 mammary carcinomas; assay: CuTCPH boron biodistribution in EMT-6 tumor-bearing mice (prior results, Rad. Res. 155, 603-610, 2001); type: in vivo, BALB/c mice
Description: There is a larger vascular system surrounding the dorsal thorax compared with the leg, which may be a factor. However, in the case of CuTCPH, the boron concentration was 30% higher in leg tumors compared to back tumors. Normalizing to the slightly higher dose of the first study, the tumor boron concentration should be about 29 and 15 μg/g at 2d and 5d, respectively, which are still low. Studies are underway to repeat these experiments.
The biodistribution properties for CuTCPBr are similar to other lipophilic tetracarboranyl tetraphenylporphyrins studied previously, particularly the results for CuTCPH which were reported in Rad. Res. 155, 603-610, 2001 and are listed in columns four and five of Table 4. The CuTCPH results were based on two groups of seven (7) BALB/c mice which were given 180 μg/gbw CuTCPH in six intraperitoneal injections over 2 days. The first group of mice was euthanized two days after the last injection and the second group four days after the last injection. The boron concentrations in different tissues were then measured.

[5] = system: EMT-6 mammary carcinomas; details: 180 μg/gbw CuTCPH, 6 ip injections over 2 days, cited from earlier work
[6] = 195 μg/gbw CuTCPH (61.8 μg B/gbw) iv over 48 hours, 3 days after end of infusion

## N[C@@H](Cc1ccc(B(O)O)cc1)C(=O)O [BPA, p-boronophenylalanine]
[1]
  blood boron concentration relative to that found in tumor: approximately one-third
  brain boron concentration relative to that found in tumor: approximately one-third
  chemical toxicity associated with usage: not eliciting any chemical toxicity

## copper tetracarboranylmethoxyphenylporphyrin [CuTCPH]
[2]; CuTCPH total dose 195 mg/kg body weight
  tumor boron concentration, median: 64 µg/g
[2]; CuTCPH total dose 450 mg/kg body weight
  tumor boron concentration, median: 117 µg/g
[3]; [6]
  Boron Concentration, Brain: 3.2 (1.4) μg/g
  Boron Concentration, Kidney: 16 (2) μg/g
  Boron Concentration, Lacrimal Gland: 45 (11) μg/g
  Boron Concentration, Liver: 638 (53) μg/g
  Boron Concentration, Lung: 83 (12) μg/g
  Boron Concentration, Lymph Nodes: 284 (68) μg/g
  Boron Concentration, Parotid Gland: 125 (26) μg/g
  Boron Concentration, Spleen: 832 (169) μg/g
  Boron Concentration, Tongue: 47 (11) μg/g
  Boron Concentration, Tumor: 63 (23) μg/g
  Boron concentration, Ears: 17 (3) μg/g
[3]; rats, 220 μg/gbw CuTCPBr or 195 μg/gbw CuTCPH iv over 48 hours
  Toxicity: does not appear to be a major problem
[4]; 180 μg/gbw CuTCPH
  decrease of liver boron from two to four days: 5%
[4]; CuTCPH, leg versus back tumors
  boron concentration higher in leg tumors compared to back tumors: 30%
[5]; after 2 days
  Boron Concentration, Blood: 0 (0) μg/g
  Boron Concentration, Brain: 0.2 (0.1) μg/g
  Boron Concentration, Ears (skin): 8.4 (2.1) μg/g
  Boron Concentration, Liver: 562 (79) μg/g
  Boron Concentration, Tumor: 62 (10) μg/g
[5]; after 4 days
  Boron Concentration, Blood: 0.3 (0.1) μg/g
  Boron Concentration, Brain: 0.7 (0.3) μg/g
  Boron Concentration, Ears (skin): 14 (2.6) μg/g
  Boron Concentration, Liver: 534 (124) μg/g
  Boron Concentration, Tumor: 71 (9) μg/g
